Source: the NIST ThermoML archive (doi:10.1016/j.jct.2019.02.011)

Assay: xn = mol fraction of the nth substance listed
Settings: Liquid, Vibrating tube method

COC(=O)OC [dimethyl carbonate] + CCO
mass density [kg/m3]
Settings | 100 kPa | 5000 kPa | 10000 kPa | 15000 kPa | 20000 kPa | 25000 kPa | 30000 kPa | 35000 kPa | 40000 kPa
303.15 K, x1 = 0.0252 | – | – | – | – | – | – | – | 817.99 | 821.19
303.15 K, x1 = 0.0506 | – | – | – | – | – | – | – | 827.65 | 830.86
303.15 K, x1 = 0.0757 | – | – | – | – | – | – | – | 836.92 | 840.19
303.15 K, x1 = 0.1003 | – | – | – | – | – | – | – | 845.76 | 849.04
303.15 K, x1 = 0.1508 | – | – | – | – | – | – | – | 863.66 | 867.01
303.15 K, x1 = 0.2 | – | – | – | – | – | – | – | 880.45 | 883.83
303.15 K, x1 = 0.2547 | – | – | – | – | – | – | – | 898.44 | 901.89
303.15 K, x1 = 0.3002 | – | – | – | – | – | – | – | 912.97 | 916.44
303.15 K, x1 = 0.3498 | – | – | – | – | – | – | – | 928.31 | 931.85
303.15 K, x1 = 0.4 | – | – | – | – | – | – | – | 943.37 | 946.93
303.15 K, x1 = 0.449 | – | – | – | – | – | – | – | 957.5 | 961.08
303.15 K, x1 = 0.4996 | – | – | – | – | – | – | – | 971.61 | 975.21
303.15 K, x1 = 0.5507 | – | – | – | – | – | – | – | 985.38 | 989
303.15 K, x1 = 0.6005 | – | – | – | – | – | – | – | 998.28 | 1001.97
303.15 K, x1 = 0.6455 | – | – | – | – | – | – | – | 1009.61 | 1013.31
303.15 K, x1 = 0.6931 | – | – | – | – | – | – | – | 1021.1 | 1024.81
303.15 K, x1 = 0.7502 | – | – | – | – | – | – | – | 1034.38 | 1038.11
303.15 K, x1 = 0.8009 | – | – | – | – | – | – | – | 1045.74 | 1049.49
303.15 K, x1 = 0.8505 | – | – | – | – | – | – | 1052.73 | 1056.47 | 1060.22
303.15 K, x1 = 0.9008 | – | – | – | – | – | – | 1063.26 | 1067 | 1070.77
303.15 K, x1 = 0.9255 | – | – | – | – | – | – | 1068.3 | 1072.05 | 1075.83
303.15 K, x1 = 0.9477 | – | – | – | – | – | – | 1072.75 | 1076.5 | 1080.28
303.15 K, x1 = 0.9735 | – | – | – | – | – | – | 1077.83 | 1081.57 | 1085.37
303.15 K, x1 = 1 | – | – | – | – | – | – | 1082.9 | 1086.6 | 1090.4
308.15 K, x1 = 0.0252 | 785.78 | 790.2 | 794.7 | 798.95 | 803.01 | 806.85 | 810.55 | 814.13 | 817.65
308.15 K, x1 = 0.0506 | 795.01 | 799.48 | 804.03 | 808.34 | 812.45 | 816.29 | 820.04 | 823.67 | 827.2
308.15 K, x1 = 0.0757 | 804.1 | 808.57 | 813.12 | 817.43 | 821.55 | 825.44 | 829.2 | 832.83 | 836.41
308.15 K, x1 = 0.1003 | 812.76 | 817.27 | 821.84 | 826.15 | 830.31 | 834.21 | 837.98 | 841.6 | 845.19
308.15 K, x1 = 0.1508 | 830.19 | 834.75 | 839.38 | 843.74 | 847.91 | 851.87 | 855.69 | 859.36 | 862.96
308.15 K, x1 = 0.2 | 846.57 | 851.18 | 855.82 | 860.24 | 864.46 | 868.48 | 872.26 | 875.98 | 879.58
308.15 K, x1 = 0.2547 | 864.3 | 868.96 | 873.61 | 878.08 | 882.31 | 886.33 | 890.22 | 893.94 | 897.55
308.15 K, x1 = 0.3002 | 878.53 | 883.23 | 887.94 | 892.42 | 896.65 | 900.73 | 904.63 | 908.34 | 911.96
308.15 K, x1 = 0.3498 | 893.6 | 898.3 | 903.03 | 907.51 | 911.79 | 915.88 | 919.79 | 923.55 | 927.17
308.15 K, x1 = 0.4 | 908.35 | 913.1 | 917.89 | 922.37 | 926.66 | 930.75 | 934.72 | 938.43 | 942.06
308.15 K, x1 = 0.449 | 922.34 | 927.13 | 931.93 | 936.46 | 940.76 | 944.91 | 948.88 | 952.59 | 956.23
308.15 K, x1 = 0.4996 | 936.23 | 941.03 | 945.84 | 950.37 | 954.72 | 958.88 | 962.91 | 966.61 | 970.26
308.15 K, x1 = 0.5507 | 949.8 | 954.65 | 959.47 | 964 | 968.36 | 972.52 | 976.56 | 980.26 | 983.92
308.15 K, x1 = 0.6005 | 962.5 | 967.34 | 972.17 | 976.76 | 981.12 | 985.34 | 989.34 | 993.09 | 996.75
308.15 K, x1 = 0.6455 | 973.59 | 978.43 | 983.27 | 987.86 | 992.27 | 996.5 | 1000.55 | 1004.29 | 1007.96
308.15 K, x1 = 0.6931 | 984.98 | 989.86 | 994.71 | 999.31 | 1003.72 | 1007.95 | 1012.02 | 1015.76 | 1019.43
308.15 K, x1 = 0.7502 | 998.06 | 1002.99 | 1007.85 | 1012.45 | 1016.86 | 1021.1 | 1025.17 | 1028.91 | 1032.59
308.15 K, x1 = 0.8009 | 1009.32 | 1014.25 | 1019.12 | 1023.72 | 1028.14 | 1032.39 | 1036.46 | 1040.2 | 1043.88
308.15 K, x1 = 0.8505 | 1019.95 | 1024.88 | 1029.76 | 1034.36 | 1038.78 | 1043.04 | 1047.12 | 1050.86 | 1054.54
308.15 K, x1 = 0.9008 | 1030.34 | 1035.27 | 1040.16 | 1044.76 | 1049.19 | 1053.46 | 1057.58 | 1061.29 | 1064.96
308.15 K, x1 = 0.9255 | 1035.32 | 1040.27 | 1045.13 | 1049.75 | 1054.19 | 1058.45 | 1062.57 | 1066.29 | 1069.95
308.15 K, x1 = 0.9477 | 1039.72 | 1044.68 | 1049.54 | 1054.15 | 1058.61 | 1062.87 | 1066.99 | 1070.7 | 1074.34
308.15 K, x1 = 0.9735 | 1044.8 | 1049.73 | 1054.59 | 1059.21 | 1063.67 | 1067.93 | 1072.03 | 1075.71 | 1079.36
308.15 K, x1 = 1 | 1049.91 | 1054.84 | 1059.69 | 1064.3 | 1068.73 | 1073 | 1077.1 | 1080.78 | 1084.38
